Measured values as given in US8846737B2, “Compound” (Sterix Limited, priority 2009, dated 2014).

Assays:
[1] = target: T1, Aromatase (Homo sapiens, UniProt P11511); assay: Aromatase activity in JEG3 cells (Protocol 6); type: cell-based; settings: intact JEG3 cells, [1β-3H]androstenedione, 30 min
T1 construct: host or cells: JEG3 choriocarcinoma cells, intact monolayers
T1 sequence (P11511 1-503): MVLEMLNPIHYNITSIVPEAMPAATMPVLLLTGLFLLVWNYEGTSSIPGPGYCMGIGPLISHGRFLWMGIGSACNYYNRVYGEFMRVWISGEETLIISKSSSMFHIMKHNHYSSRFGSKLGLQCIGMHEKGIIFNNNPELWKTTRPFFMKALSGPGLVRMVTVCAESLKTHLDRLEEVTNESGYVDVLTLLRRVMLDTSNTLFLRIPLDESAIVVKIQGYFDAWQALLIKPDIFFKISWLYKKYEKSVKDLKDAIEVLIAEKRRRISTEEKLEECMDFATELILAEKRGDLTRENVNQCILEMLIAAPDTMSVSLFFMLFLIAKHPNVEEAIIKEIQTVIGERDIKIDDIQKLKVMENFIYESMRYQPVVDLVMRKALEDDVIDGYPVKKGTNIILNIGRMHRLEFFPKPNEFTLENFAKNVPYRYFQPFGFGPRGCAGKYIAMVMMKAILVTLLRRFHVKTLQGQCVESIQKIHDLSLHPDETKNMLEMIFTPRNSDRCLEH
Description: Assay for Determining Aromatase Activity Using JEG3 Cells
Aromatase activity is measured in JEG3 choriocarcinoma cells, obtained from the ATCC. […] During the aromatase reaction, ^3H2O is liberated which can be quantified using a liquid scintillation spectrometer. […] The number of cell nuclei per flask is determined using a Coulter Counter after treating the cell monolayers with Zaponin.
Aromatase inhibition was measured in accordance with Protocol 6.

[2] = target: T2, Steroid sulphatase (STS) (Homo sapiens, UniProt P08842); assay: Inhibition of steroid sulphatase activity in JEG3 cells (Protocol 1); type: cell-based; settings: intact JEG3 cells, [6,7-3H]oestrone-3-sulphate, 3-4 hours
T2 construct: host or cells: JEG3 choriocarcinoma cells, intact monolayers
T2 sequence (P08842 22-583): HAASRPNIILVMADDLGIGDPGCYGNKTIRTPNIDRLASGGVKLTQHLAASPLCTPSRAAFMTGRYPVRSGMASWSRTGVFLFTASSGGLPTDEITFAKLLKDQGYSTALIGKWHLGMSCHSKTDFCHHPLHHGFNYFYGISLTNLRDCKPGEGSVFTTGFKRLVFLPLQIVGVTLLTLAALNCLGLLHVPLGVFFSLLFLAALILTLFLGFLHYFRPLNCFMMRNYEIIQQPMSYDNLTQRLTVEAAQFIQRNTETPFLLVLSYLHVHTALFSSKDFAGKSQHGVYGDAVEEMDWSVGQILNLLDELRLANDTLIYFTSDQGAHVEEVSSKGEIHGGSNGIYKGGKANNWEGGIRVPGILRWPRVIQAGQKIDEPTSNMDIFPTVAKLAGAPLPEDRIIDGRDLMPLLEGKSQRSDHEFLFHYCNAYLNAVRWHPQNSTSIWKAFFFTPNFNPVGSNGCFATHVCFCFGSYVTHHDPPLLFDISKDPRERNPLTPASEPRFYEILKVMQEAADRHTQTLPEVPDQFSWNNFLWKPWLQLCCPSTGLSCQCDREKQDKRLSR
Description: Assay for Determining STS Activity Using Cancer Cells
Inhibition of Steroid Sulphatase Activity in JEG3 Cells
Steroid sulphatase activity is measured in vitro using intact JEG3 choriocarcinoma cells.
Cells are maintained in Minimal Essential Medium (MEM) containing 20 mM HEPES, 5% foetal bovine serum, 2 mM glutamine, non-essential amino acids and 0.075% sodium bicarbonate. Up to 30 replicate 25 cm^2 tissue culture flasks are seeded with approximately 1×10^5 cells/flask using the above medium Cells are grown to 80% confluency and the medium is changed every third day.
Intact monolayers of JEG3 cells in triplicate 25 cm^2 tissue culture flasks are washed with Earle's Balanced Salt Solution (EBSS) and incubated for 3-4 hours at 37° C. with 5 pmol (7×10^5 dpm) [6, 7-3H]oestrone-3-sulphate (specific activity 60 Ci/mmol) in serum-free MEM (2.5 ml) together with oestrone-3-sulphamate (11 concentrations: 0; 1fM; 0.01 pM; 0.1 pM, 1 pM; 0.01 nM; 0.1 nM; 0.01 mM; 0.1 mM; 1 mM). After incubation each flask is cooled and the medium (1 ml) is pipetted into separate tubes containing [14C]oestrone (7×10^3 dpm) (specific activity 97 Ci/mmol). The mixture is shaken thoroughly for 30 seconds with toluene (5 ml) Experiments have shown that >90% [14C]oestrone and <0 1% [3H]oestrone-3-sulphate is removed from the aqueous phase by this treatment A portion (2 ml) of the organic phase is removed, evaporated and the 3H and 14C content of the residue determined by scintillation spectrometry The mass of oestrone-3-sulphate hydrolysed was calculated from the 3H counts obtained (corrected for the volumes of the medium and organic phase used, and for recovery of [14C] oestrone added) and the specific activity of the substrate Each batch of experiments includes incubations of microsomes prepared from a sulphatase-positive human placenta (positive control) and flasks without cells (to assess apparent non-enzymatic hydrolysis of the substrate). The number of cell nuclei per flask is determined using a Coulter Counter after treating the cell monolayers with Zaponin One flask in each batch is used to assess cell membrane status and viability using the Trypan Blue exclusion method (Phillips, H J. (1973) In: Tissue culture and applications, [eds: Kruse, D. F. & Patterson, M. K]; pp 406-408; Academic Press, New York)
Results for steroid sulphatase activity are expressed as the mean±1S.D. of the total product (oestrone+oestradiol) formed during the incubation period (3-4 hours) calculated for […] and, for values showing statistical significance, as a percentage reduction (inhibition) over incubations containing no oestrone-3-sulphamate. Unpaired Student's t-test was used to test the statistical significance of results
Sterioid sulphatase inhibition was measured in accordance with Protocol 1

Row | Structure (SMILES) | IC50 [1] [nM] | IC50 [2] [nM]
1 | N#Cc1ccc(N(Cc2ccc(O)cc2)n2cnnc2)cc1-c1ccccc1 [CAB06021, 5-((4-Hydroxybenzyl)(4H-1,2,4-triazol-4-yl)amino)biphenyl-2-carbonitrile] | < 0.1 | –
2 | N#Cc1ccc(Nn2cnnc2)cc1-c1ccccc1 [CAB06022, 5-(4H-1,2,4-Triazol-4-ylamino)biphenyl-2-carbonitrile] | 0.39 ± 0.09 | –
3 | N#Cc1ccc(N(Cc2ccc(OS(N)(=O)=O)cc2)n2cnnc2)cc1-c1ccccc1 [CAB06025, 4-(((6-Cyanobiphenyl-3-yl)(4H-1,2,4-triazol-4-yl)amino)methyl)phenyl sulfamate] | 0.14 ± 0.01 | 17 ± 2
4 | N#Cc1ccc(N(Cc2ccc(O)c(Br)c2)n2cnnc2)cc1-c1ccccc1 [CAB06026, 5-((3-Bromo-4-hydroxybenzyl)(4H-1,2,4-triazol-4-yl)amino)biphenyl-2-carbonitrile] | 3.6 ± 0.4 | –
5 | N#Cc1ccc(N(Cc2ccc(O)c(F)c2)n2cnnc2)cc1-c1ccccc1 [CAB06043, 5-((3-Fluoro-4-hydroxybenzyl)(4H-1,2,4-triazol-4-yl)amino)biphenyl-2-carbonitrile] | 1.6 ± 0.6 | –
6 | N#Cc1ccc(N(Cc2ccc(OS(N)(=O)=O)c(F)c2)n2cnnc2)cc1-c1ccccc1 [CAB06044, 4-(((6-Cyanobiphenyl-3-yl)(4H-1,2,4-triazol-4-yl)amino)methyl)-2-fluorophenyl sulfamate] | 0.15 ± 0.03 | 2.3 ± 0.9
7 | N#Cc1ccc(N(Cc2ccc(OS(N)(=O)=O)c(Br)c2)n2cnnc2)cc1-c1ccccc1 [CAB06045, 2-Bromo-4-(((6-cyanobiphenyl-3-yl)(4H-1,2,4-triazol-4-yl)amino)methyl)phenyl sulfamate] | 0.018 ± 0.01 | 0.13 ± 0.01
8 | COc1ccc(-c2cc(Nn3cnnc3)ccc2C#N)cc1 [CAB06046, 5-(4H-1,2,4-Triazol-4-ylamino)-4′-methoxybiphenyl-2-carbonitrile] | 0.26 ± 0.12 | –
9 | N#Cc1ccc(N(Cc2ccc(OS(N)(=O)=O)c(Cl)c2)n2cnnc2)cc1-c1ccccc1 [CAB06049, 2-Chloro-4-(((6-cyanobiphenyl-3-yl)(4H-1,2,4-triazol-4-yl)amino)methyl)phenyl sulfamate] | 0.015 ± 0.005 | 0.83 ± 0.15
10 | N#Cc1ccc(N(Cc2ccccc2)n2cnnc2)cc1-c1ccc(O)cc1 [CAB06052, 5-(Benzyl-[1,2,4]triazol-4-yl-amino)-4′-hydroxy-biphenyl-2-carbonitrile] | 0.33 ± 0.01 | –
11 | N#Cc1ccc(N(Cc2ccccc2)n2cnnc2)cc1-c1ccc(OS(N)(=O)=O)cc1 [CAB06054, 5′-(Benzyl(4H-1,2,4-triazol-4-yl)amino)-2′-cyanobiphenyl-4-yl sulfamate] | 0.1 ± 0.02 | 2900 ± 180
12 | N#Cc1ccc(N(Cc2ccc(Br)cc2)n2cnnc2)cc1-c1ccc(OS(N)(=O)=O)cc1 [CAB06059, 5′-((4-Bromobenzyl)(4H-1,2,4-triazol-4-yl)amino)-2′-cyanobiphenyl-4-yl sulfamate] | 0.05 ± 0.01 | 2900 ± 100
13 | COc1ccc(-c2cc(N(Cc3ccc(OS(N)(=O)=O)cc3)n3cnnc3)ccc2C#N)cc1 [CAB06077] | 0.015 ± 0.001 | 22 ± 6
14 | N#Cc1ccc(N(Cc2ccc(OS(N)(=O)=O)cc2)n2cnnc2)cc1-c1ccc(F)cc1 [CAB06078, 4-(((6-Cyano-4′-fluorobiphenyl-3-yl)(4H-1,2,4-triazol-4-yl)amino)methyl)phenyl sulfamate] | 0.47 ± 0.18 | 55 ± 6
15 | N#Cc1ccc(-c2cc(N(Cc3ccc(OS(N)(=O)=O)cc3)n3cnnc3)ccc2C#N)cc1 [CAB06088, 4-(((4′,6-Dicyanobiphenyl-3-yl)(4H-1,2,4-triazol-4-yl)amino)methyl)phenyl sulfamate] | 0.75 ± 0.18 | 240 ± 60
16 | N#Cc1ccc(N(Cc2ccc(Br)cc2)n2cnnc2)cc1-c1ccccc1 [Compound 1] | < 0.1 | –
17 | N#Cc1ccc(N(Cc2ccc(Br)cc2)n2cnnc2)c(-c2ccccc2)c1 [Compound 2] | 960 ± 53 | –
18 | N#Cc1ccc(N(Cc2ccc(OS(N)(=O)=O)cc2)n2cnnc2)cc1-c1ccccc1 [Compound 3] | 0.25 ± 0.03 | 3 ± 0.5
19 | N#Cc1ccc(N(Cc2ccc(OS(N)(=O)=O)c(Br)c2)n2cnnc2)cc1-c1ccsc1 [Compound 9] | 2.6 ± 0.2 | 3.9 ± 0.8

Row | Structure (SMILES) | IC50 [1] [nM] | IC50 [2] [nM]
20 | N#Cc1ccc(N(Cc2ccc(OS(N)(=O)=O)cc2)n2cnnc2)cc1N1CCCCCC1=O [Compound 11] | 850 ± 104 | 1300 ± 265
21 | N#Cc1ccc(N(Cc2ccc(O)cc2)n2cnnc2)cc1Cc1ccccc1 [Compound 12] | < 0.1 | –
22 | N#Cc1ccc(N(Cc2ccc(OS(N)(=O)=O)cc2)n2cnnc2)cc1Cc1ccccc1 [Compound 13] | < 0.1 | 41 ± 3
23 | N#Cc1ccc(N(Cc2ccc(OS(N)(=O)=O)cc2)n2cnnc2)cc1N1CCCC1 [Compound 15] | < 0.1 | 60 ± 7
24 | N#Cc1ccc(N(Cc2ccc(OS(N)(=O)=O)cc2)n2cnnc2)cc1N1CCOCC1 [Compound 21] | 44 ± 5 | –
25 | CN1CCN(c2cc(N(Cc3ccc(O)cc3)n3cnnc3)ccc2C#N)CC1 [Compound 22] | 13.8 ± 4.51 | –
26 | N#Cc1ccc(N(CCc2c(F)cc(O)cc2F)n2cnnc2)cc1 [Compound 24] | 0.14 ± 0.03 | –
27 | N#Cc1ccc(N(CCc2c(F)cc(OS(N)(=O)=O)cc2F)n2cnnc2)cc1 [Compound 25] | – | 485 ± 50.7
28 | N#Cc1ccc(N(Cc2ccc(OS(N)(=O)=O)cc2)n2cnnc2)c2ccccc12 [Compound 27] | 200 ± 5 | –
29 | N#Cc1ccc(N(Cc2ccc(O)cc2F)n2cnnc2)cc1-c1ccccc1 [Compound 30] | 0.35 ± 0.06 | –
30 | N#Cc1ccc(N(Cc2ccc(O)c(F)c2F)n2cnnc2)cc1-c1ccccc1 [Compound 33] | 1 ± 0.3 | –
31 | COc1ccc(-c2cc(N(Cc3c(F)cc(O)cc3F)n3cnnc3)ccc2C#N)cc1 [Compound 35] | < 0.1 | –
32 | N#Cc1ccc(C(c2ccc(O)cc2)n2cncn2)cc1-c1ccccc1 (stereo not drawn) [Compound 37] | 0.23 ± 0.04 | –
33 | N#Cc1ccc(N(Cc2ccc(O)cc2)n2cnnc2)cc1CN1CCCC1 [Compound 40] | 8 | –
34 | COc1ccc(Cc2cc(N(Cc3ccc(O)cc3)n3cnnc3)ccc2C#N)cc1 [Compound 44] | 3.1 ± 0.4 | –
35 | N#Cc1ccc(N(Cc2c(F)cc(O)cc2F)n2cnnc2)cc1-c1ccc(F)cc1 [Compound 46] | 4.1 ± 0.2 | –
36 | N#Cc1ccc(N(Cc2ccc(O)cc2)n2cnnc2)cc1-c1ccncc1 [Compound 50] | 4.03 ± 0.29 | –
37 | N#Cc1ccc(N(Cc2ccc(O)cc2)n2cnnc2)cc1Oc1ccccc1 [Compound 56] | 1.82 ± 0.03 | –
